The values that follow come from patent publication US12583849B2, “KCNT1 inhibitors and methods of use” (Praxis Precision Medicines, Inc., priority 2020, dated 2026).

The experiment deals with T1, KCNT1 (KNa1.1, Slack) (Homo sapiens, UniProt Q5JUK3).
T1 construct: expressed in transfected cells; host or cells: HEK-TREX (tetracycline-inducible cell line)
T1 sequence (Q5JUK3 1-1230): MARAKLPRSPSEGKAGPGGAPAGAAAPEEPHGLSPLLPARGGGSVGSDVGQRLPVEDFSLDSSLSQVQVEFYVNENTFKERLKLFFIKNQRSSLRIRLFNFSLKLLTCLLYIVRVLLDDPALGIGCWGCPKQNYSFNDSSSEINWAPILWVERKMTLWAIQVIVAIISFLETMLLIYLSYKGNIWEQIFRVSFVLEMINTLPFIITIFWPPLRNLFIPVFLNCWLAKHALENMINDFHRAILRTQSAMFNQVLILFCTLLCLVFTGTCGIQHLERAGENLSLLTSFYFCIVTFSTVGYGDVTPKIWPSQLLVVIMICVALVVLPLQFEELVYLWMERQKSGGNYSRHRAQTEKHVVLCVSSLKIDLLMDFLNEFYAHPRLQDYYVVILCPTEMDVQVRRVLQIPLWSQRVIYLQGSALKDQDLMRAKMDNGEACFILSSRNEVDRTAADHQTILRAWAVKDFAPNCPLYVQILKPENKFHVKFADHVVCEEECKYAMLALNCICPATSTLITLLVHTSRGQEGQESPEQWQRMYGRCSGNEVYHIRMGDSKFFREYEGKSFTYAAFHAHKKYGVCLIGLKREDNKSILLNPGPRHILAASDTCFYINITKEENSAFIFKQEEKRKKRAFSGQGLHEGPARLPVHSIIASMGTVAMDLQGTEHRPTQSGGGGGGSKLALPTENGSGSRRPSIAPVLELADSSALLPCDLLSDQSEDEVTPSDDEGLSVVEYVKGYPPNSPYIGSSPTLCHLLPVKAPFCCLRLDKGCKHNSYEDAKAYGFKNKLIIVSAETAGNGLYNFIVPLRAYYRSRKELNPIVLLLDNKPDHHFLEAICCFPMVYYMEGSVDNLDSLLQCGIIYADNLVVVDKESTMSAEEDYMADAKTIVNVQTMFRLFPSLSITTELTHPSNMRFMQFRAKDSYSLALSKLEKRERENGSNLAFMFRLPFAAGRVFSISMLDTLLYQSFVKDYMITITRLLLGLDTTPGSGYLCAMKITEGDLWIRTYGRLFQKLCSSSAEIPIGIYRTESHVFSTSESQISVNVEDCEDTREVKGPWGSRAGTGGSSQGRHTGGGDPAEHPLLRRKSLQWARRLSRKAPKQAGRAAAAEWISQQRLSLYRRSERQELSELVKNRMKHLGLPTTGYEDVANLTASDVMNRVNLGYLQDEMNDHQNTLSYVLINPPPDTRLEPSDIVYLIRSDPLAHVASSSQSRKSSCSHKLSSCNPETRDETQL
Briefly: KCNT1-WT-Basal Patch Clamp Assay. Format: cell-based. The following applies: tetracycline inducible cell line (HEK-TREX); SyncroPatch 384PE automated patch clamp, perforated patch mode, room temperature, step from -80 mV to 0 mV. The procedure, abridged: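 Tetracycline-inducible HEK-TREX cells expressing human KCNT1, recorded by automated perforated patch clamp (10 μM escin) at room temperature, with 4 mM external K+ at pH 7.4. Mean current taken during a 100 ms step from −80 mV to 0 mV, averaged over 3 sweeps. IC50 from Hill fit of % inhibition; otherwise % inhibition at top concentration.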

SMILES strings stand for the structures. pIC50: −log10 of the molar value.

As a reminder, the pIC50 is the negative decadic logarithm of the IC50, by convention in mol/L. The low end stands for a high IC50, the high end for a low IC50. `C[C@H](NC(=O)C1CC(C)(C)C1)c1nc(-c2ccnc(C(F)(F)F)c2)no1` [Compound I-56, (S)-3,3-dimethyl-N-(1-(3-(2-(trifluoromethyl)pyridin-4-yl)-1,2,4-oxadiazol-5-yl)ethyl)cyclobutane-1-carboxamide]: the pIC50 is ≥ 6.00.
As for `C[C@H](NC(=O)C1CC2CCC1CC2)c1nc(-c2ccnc(C(F)(F)F)c2)no1` (stereo partly drawn) [Compound I-60, N—((S)-1-(3-(2-(trifluoromethyl)pyridin-4-yl)-1,2,4-oxadiazol-5-yl)ethyl)bicyclo[2.2.2]octane-2-carboxamide], the pIC50 is ≥ 6.00.
The same measure for `Cc1nc(C(F)(F)F)ccc1C(=O)NC(C)c1nc(-c2cccc(F)c2)no1` (stereo not drawn) [Compound I-47, N-[1-[3-(3-fluorophenyl)-1,2,4-oxadiazol-5-yl]ethyl]-2-methyl-6-(trifluoromethyl)pyridine-3-carboxamide]: 4.70 to 6.00; for `C[C@H](NC(=O)[C@H](C)c1ccccc1)c1nc(-c2ccnc(C3CC3)c2)no1` [Compound I-58, (R)—N—((S)-1-(3-(2-cyclopropylpyridin-4-yl)-1,2,4-oxadiazol-5-yl)ethyl)-2-phenylpropanamide]: ≥ 6.00.
`C[C@H](NC(=O)c1ccccc1)c1nc(-c2ccnc(C(F)(F)F)c2)no1` [Compound I-8, (S)—N-(1-(3-(2-(trifluoromethyl)pyridin-4-yl)-1,2,4-oxadiazol-5-yl)ethyl)benzamide]: the pIC50 was ≥ 6.00.
The same measure for `CC(=O)N1CCCC(C(=O)N[C@@H](C)c2nc(-c3ccnc(C(F)(F)F)c3)no2)C1` (mixture of isomers) [Compound I-85, 1-acetyl-N-[(1S)-1-[3-[2-(trifluoromethyl)-4-pyridyl]-1,2,4-oxadiazol-5-yl]ethyl]piperidine-3-carboxamide]: ≤ 4.70.
Consider `C[C@H](NC(=O)N1CCCc2ccccc21)c1nc(-c2ccnc(C3CC3)c2)no1` [II-8], for which the pIC50 was ≥ 6.00.
With `C[C@H](NC(=O)N1CCCCC1)c1nc(-c2ccnc(C(F)(F)F)c2)no1` [II-10] the figure was 4.70 to 6.00; with `CC(=O)N1CCC(C(=O)N[C@@H](C)c2nc(-c3ccnc(C(F)(F)F)c3)no2)CC1` [Compound I-73, 1-acetyl-N-[(1S)-1-[3-[2-(trifluoromethyl)-4-pyridyl]-1,2,4-oxadiazol-5-yl]ethyl]piperidine-4-carboxamide], ≤ 4.70; with `C[C@H](NC(=O)c1cccnc1)c1nc(-c2ccnc(C(F)(F)F)c2)no1` [Compound I-11, (S)—N-(1-(3-(2-(trifluoromethyl)pyridin-4-yl)-1,2,4-oxadiazol-5-yl)ethyl)nicotinamide], 4.70 to 6.00.
Take `C[C@H](NC(=O)C1(C)CCCCC1)c1nc(-c2ccnc(C(F)(F)F)c2)no1` [Compound I-71, 1-methyl-N-[(1S)-1-[3-[2-(trifluoromethyl)-4-pyridyl]-1,2,4-oxadiazol-5-yl]ethyl]cyclohexanecarboxamide]: the pIC50 was ≥ 6.00.
For `C[C@H](NC(=O)[C@H]1CC[C@@H](C)CC1)c1nc(-c2ccnc(C3CC3)c2)no1` [Compound I-84, (1S,4R)—N—((S)-1-(3-(2-cyclopropylpyridin-4-yl)-1,2,4-oxadiazol-5-yl)ethyl)-4-methylcyclohexane-1-carboxamide], the pIC50 is ≥ 6.00.
Consider `CC[C@H](NC(=O)Cc1ccccc1)c1nc(-c2ccnc(C(F)(F)F)c2)no1` [Compound I-15, (S)-2-phenyl-N-(1-(3-(2-(trifluoromethyl)pyridin-4-yl)-1,2,4-oxadiazol-5-yl)propyl)acetamide], for which the pIC50 was ≥ 6.00.
The same measure for `Cc1cccc(C(=O)N[C@@H](C)c2nc(-c3ccnc(C4CC4)c3)no2)c1` [Compound I-81, N-[(1S)-1-[3-(2-cyclopropyl-4-pyridyl)-1,2,4-oxadiazol-5-yl]ethyl]-3-methyl-benzamide]: ≥ 6.00.
With `C[C@H](NC(=O)c1cccc(Cl)c1)c1nc(-c2ccnc(C3CC3)c2)no1` [Compound I-63, 3-chloro-N-[(1S)-1-[3-(2-cyclopropyl-4-pyridyl)-1,2,4-oxadiazol-5-yl]ethyl]benzamide] the figure was ≥ 6.00; with `C[C@H](NC(=O)c1ccno1)c1nc(-c2ccnc(C(F)(F)F)c2)no1` [Compound I-23, (S)—N-(1-(3-(2-(trifluoromethyl)pyridin-4-yl)-1,2,4-oxadiazol-5-yl)ethyl)isoxazole-5-carboxamide], ≤ 4.70.
The same measure for `CC(=O)N1CCCCC1C(=O)N[C@@H](C)c1nc(-c2ccnc(C(F)(F)F)c2)no1` (mixture of isomers) [Compound I-86, 1-acetyl-N-[(1S)-1-[3-[2-(trifluoromethyl)-4-pyridyl]-1,2,4-oxadiazol-5-yl]ethyl]piperidine-2-carboxamide]: ≤ 4.70.
Consider `C[C@H](NC(=O)c1ccccc1)c1nc(-c2ccnc(C3CC3)c2)no1` [Compound I-41, (S)—N-(1-(3-(2-cyclopropylpyridin-4-yl)-1,2,4-oxadiazol-5-yl)ethyl)benzamide], for which the pIC50 was ≥ 6.00.
With `C[C@H](NC(=O)c1ccncc1)c1nc(-c2ccnc(C(F)(F)F)c2)no1` [Compound I-6, (S)—N-(1-(3-(2-(trifluoromethyl)pyridin-4-yl)-1,2,4-oxadiazol-5-yl)ethyl)isonicotinamide] the figure was ≤ 4.70.
With `C[C@H](NC(=O)[C@@H](C)c1ccccc1)c1nc(-c2ccnc(C(F)(F)F)c2)no1` [Compound I-16, (S)-2-phenyl-N—((S)-1-(3-(2-(trifluoromethyl)pyridin-4-yl)-1,2,4-oxadiazol-5-yl)ethyl)propanamide] the figure was ≥ 6.00; with `C[C@H](NC(=O)[C@H]1CC[C@H](C)CC1)c1nc(-c2ccnc(C3CC3)c2)no1` [Compound I-29, (S)—N-(1-(3-(2-cyclopropylpyridin-4-yl)-1,2,4-oxadiazol-5-yl)ethyl)-4-methylcyclohexane-1-carboxamide], ≥ 6.00; with `C[C@H](NC(=O)N(C)c1ccccc1)c1nc(-c2ccnc(C(F)(F)F)c2)no1` [II-12], ≥ 6.00.
With `COc1ccccc1C(=O)N[C@@H](C)c1nc(-c2ccnc(C3CC3)c2)no1` [Compound I-75, N-[(1S)-1-[3-(2-cyclopropyl-4-pyridyl)-1,2,4-oxadiazol-5-yl]ethyl]-2-methoxy-benzamide] the figure was ≥ 6.00; with `CC(C)Oc1cc(-c2noc([C@H](C)NC(=O)N3CCCCC3)n2)ccn1` [II-2], ≥ 6.00; with `C[C@H](NC(=O)C1CCCCN1C)c1nc(-c2ccnc(C(F)(F)F)c2)no1` (stereo partly drawn) [Compound I-66, 1-methyl-N—((S)-1-(3-(2-(trifluoromethyl)pyridin-4-yl)-1,2,4-oxadiazol-5-yl)ethyl)piperidine-2-carboxamide], ≤ 4.70.
For `C[C@H](NC(=O)C1(C#N)CC1)c1nc(-c2ccnc(C(F)(F)F)c2)no1` [Compound I-32, (S)-1-cyano-N-(1-(3-(2-(trifluoromethyl)pyridin-4-yl)-1,2,4-oxadiazol-5-yl)ethyl)cyclopropane-1-carboxamide], the pIC50 is ≤ 4.70.
The same measure for `C[C@H](NC(=O)C1CC2(CCC2)C1)c1nc(-c2ccnc(C3CC3)c2)no1` [Compound I-98, (S)—N-(1-(3-(2-cyclopropylpyridin-4-yl)-1,2,4-oxadiazol-5-yl)ethyl) spiro[3.3]heptane-2-carboxamide]: ≥ 6.00.
